Measurements as given in patent US11813277B2, “Methods and agents for modulating inflammation” (The Regents of the University of California, priority 2018, dated 2023).

Columns and labels:
3T3-L1 adipocytes = assay: Maximal respiration in 3T3-L1 adipocytes (positive control); format: cell-based; settings: 3 μM etomoxir
Method: (§1) All respirometry studies were conducted in either a Seahorse XF96 or XFe96 Analyzer. All experiments were conducted at 37° C., and at pH 7.4 (intact cells) or 7.2 (permeabilized cells and isolated mitochondria). Calculation of respiratory parameters was made according to standard protocols (Divakaruni, A. S., Paradyse, A., Ferrick, D. A., Murphy, A. N., and Jastroch, M. (2014a) Analysis and interpretation of microplate-based oxygen consumption and pH data. Meth. Enzym 547, 509-54), and all rates were corrected for non-mitochondrial respiration/background signal by subtracting the oxygen consumption rate insensitive to rotenone plus antimycin A.
Detailed description of FIG. 5. (FIG. 5A) Maximal FCCP-stimulated respiration in response to 3 μM etomoxir in six cell types (experimental conditions in Materials and Methods). […] (n≥3 independent biological replicates). (FIG. 5B) (Left) Maximal respiration in HepG2 cells offered 8 mM glucose, 2 mM glutamine, and 2 mM pyruvate in the experimental medium with BPTES and UK5099 (both at 3 μM)±3 μM etomoxir. (n=4 independent biological replicates). (Right) Maximal respiration in 3T3-L1 adipocytes offered 1 mM glucose and 0.5 mM carnitine in the experimental medium with increasing concentrations of etomoxir. (n=3 independent biological replicates). […]

CPT-1 [1] = molecular target: T1, CPT-1 (Homo sapiens, UniProt P50416); assay: Palmitoyl CoA-driven respiration in permeabilized HepG2 cells; format: cell-based; design: endogenous in cells; host or cells: HepG2 (A5)
T1 sequence (P50416 1-773): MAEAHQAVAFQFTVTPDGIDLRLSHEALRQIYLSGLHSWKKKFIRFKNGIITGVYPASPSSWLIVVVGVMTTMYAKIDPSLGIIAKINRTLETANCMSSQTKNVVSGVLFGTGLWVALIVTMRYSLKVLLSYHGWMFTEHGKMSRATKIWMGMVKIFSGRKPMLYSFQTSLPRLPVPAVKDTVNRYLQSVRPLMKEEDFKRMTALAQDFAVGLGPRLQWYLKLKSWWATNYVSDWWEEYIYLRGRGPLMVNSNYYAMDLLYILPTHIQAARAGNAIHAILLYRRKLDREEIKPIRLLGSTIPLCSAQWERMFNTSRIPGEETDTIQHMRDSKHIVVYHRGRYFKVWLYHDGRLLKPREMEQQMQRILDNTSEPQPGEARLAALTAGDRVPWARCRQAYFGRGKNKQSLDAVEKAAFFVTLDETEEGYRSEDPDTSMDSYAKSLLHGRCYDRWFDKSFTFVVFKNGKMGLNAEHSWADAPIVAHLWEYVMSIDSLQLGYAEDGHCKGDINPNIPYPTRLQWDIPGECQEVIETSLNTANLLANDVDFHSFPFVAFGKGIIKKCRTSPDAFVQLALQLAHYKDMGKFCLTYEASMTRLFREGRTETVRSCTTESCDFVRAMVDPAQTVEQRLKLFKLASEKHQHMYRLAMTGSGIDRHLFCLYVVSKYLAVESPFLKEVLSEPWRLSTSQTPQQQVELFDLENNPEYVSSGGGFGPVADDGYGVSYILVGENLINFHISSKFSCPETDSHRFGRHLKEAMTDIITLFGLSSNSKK

BMDMs = assay: Substrate-specific respirometry in permeabilized cells; format: cell-based, mouse; settings: 3 μM etomoxir
CPT-1 [2] = molecular target: T1, CPT-1; assay: Palmitoyl CoA-driven respiration in permeabilized A549 cells; format: cell-based; design: endogenous in cells; host or cells: A549 (A6)
[3] = test system: A549, HCT116, cortical neurons, cortical astrocytes, BMDM, NRVM; assay: Respiration in intact cells offered glucose, glutamine, pyruvate (six cell types); format: cell-based
Method: as §1
When diagnosing an off-target effect of etomoxir (FIG. 5A, FIG. 5B, FIG. 5C), all cells apart from primary neurons were offered 8 mM glucose, 2 mM glutamine, and 2 mM pyruvate in unbuffered DMEM supplemented with 5 mM HEPES. […] Respiration in all intact cells was measured in the basal state as well as in response to 2 μM oligomycin, FCCP (either 400 nM, 800 nM or 1.2 μM as appropriate and previously optimized), and 0.2 μM rotenone with 1 μM antimycin A. Etomoxir (at concentrations indicated in the text), UK5099 (3 μM), or BPTES (3 μM) were added to the assay medium 30 min prior to measurements.

CPT-1a and CPT-1b = settings: upon enzymatic conversion to etomoxiryl CoA; cited from earlier work

## CCOC(=O)[C@@]1(CCCCCCOc2ccc(Cl)cc2)CO1 [etomoxir]
3T3-L1 adipocytes
  respiration: sufficient to inhibit respiration
CPT-1 [1]
  EC50, FCCP-stimulated palmitoyl CoA-driven respiration: nanomolar
  concentration of saturable effect: less than 3 μM
BMDMs
  palmitoyl CoA oxidation: significant effect
BMDMs; glutamate/malate, pyruvate/malate, palmitoylcarnitine/malate, succinate/rotenone
  respiration driven by substrates which do not require CPT-1: no effect
CPT-1 [2]
  EC50, FCCP-stimulated palmitoyl CoA-driven respiration: nanomolar
  concentration of saturable effect: less than 3 μM
[3]; 3 μM etomoxir, no fatty acids or carnitine
  maximal respiratory rate: did not inhibit respiration
[3]; increasing, high concentrations of etomoxir
  ATP-linked vs uncoupler-stimulated respiration: disproportionately inhibited ATP-linked respiration relative to uncoupler-stimulated respiration
CPT-1a and CPT-1b
  IC50: 10 to 700 nM
